Read-outs that look alike come from different tables or passages of the source.
How the values were obtained:
W303-1A + pYI = assay: MIC on SD-uracil agar medium, wild strain W303-1A + pYI; type: cell-based; settings: Saccharomyces cerevisiae, 48 h
KHW1 + pYI = assay: MIC on SD-uracil agar medium, SYR1 gene disruption strain KHW1 + pYI; type: cell-based, Saccharomyces cerevisiae; settings: for MIC: Saccharomyces cerevisiae, 48 h; for Increase of sensitivity of SYR1 gene disruption strain (KHW1+pYI) compared with wild strain (W303-1A+pYI): ratio of MIC values
Protocol: (§1) A double gene disruption strain KHW2 deficient in PDR5 (Δsyr1/erg3::HIS Δpdr5::LEU2), a double gene disruption strain KHW4 deficient in SNQ2 which is another drug-discharging ABC transporter of yeast (Δpdr5::LEU2 Δsnq2::HIS3) and a triple gene disruption strain […] deficient in PDR5 and SNQ2 (Δsyr1/erg3::HIS3 Δpdr5::LEU2 Δsnq2::HIS3) were prepared from an SYR1/ERG3 gene disruption strain KHW1 of Saccharomyces cerevisiae W303-1A (wild type) (Δsyr1/erg3::HIS3). Preparation of multiple gene disruption strains was carried out in such a manner that a host strain was transformed by a plasmid for disruption of gene where LEU2 gene or […] gene was a marker and the disrupted strain where each drug-resistant gene was disrupted by insertion of LEU2 or HIS3 gene was selected using recovery of requirement of leucine or histidine as an index. Each of the multiple gene disruption strains was confirmed by an increase in sensitivity to cycloheximide and cerulenin while gene disruption of PDR5 and SNQ2 was confirmed by a southern hybridization.

KHW3 + pYI = assay: MIC on SD-uracil agar medium, triple gene disruption strain KHW3 + pYI; type: cell-based, Saccharomyces cerevisiae; settings: for MIC: Saccharomyces cerevisiae, 48 h; for Increase of sensitivity of triple gene disruption strain KHW3 compared with wild strain: ratio of MIC values
Protocol: as §1

KHW3 + pYI-PDR5 = assay: MIC on SD-uracil agar medium, KHW3 + pYI-PDR5; type: cell-based; settings: Saccharomyces cerevisiae, 48 h
Protocol: as §1

KHW4 + pYI = assay: MIC on SD-uracil agar medium, KHW4 + pYI; type: cell-based; settings: Saccharomyces cerevisiae, 48 h
Protocol: as §1

KHW4 + pYI-PDR5 = assay: MIC on SD-uracil agar medium, KHW4 + pYI-PDR5; type: cell-based; settings: Saccharomyces cerevisiae, 48 h
Protocol: as §1

PDR5 transporter = target: T1, PDR5 transporter (Saccharomyces cerevisiae, UniProt P33302); assay: Agar well diffusion growth inhibition assay for PDR5 transporter inhibition, KHW3+pYI-PDR5; type: cell-based; settings: cycloheximide 0.04 μg/ml or cerulenin 0.4 μg/ml, without FK 506
T1 construct: expressed in transfected cells; host or cells: Saccharomyces cerevisiae KHW3 (Δsyr1/erg3::HIS3 Δpdr5::LEU2 Δsnq2::HIS3) carrying plasmid pYI-PDR5
T1 sequence (P33302 whole entry, the tested form may be a part): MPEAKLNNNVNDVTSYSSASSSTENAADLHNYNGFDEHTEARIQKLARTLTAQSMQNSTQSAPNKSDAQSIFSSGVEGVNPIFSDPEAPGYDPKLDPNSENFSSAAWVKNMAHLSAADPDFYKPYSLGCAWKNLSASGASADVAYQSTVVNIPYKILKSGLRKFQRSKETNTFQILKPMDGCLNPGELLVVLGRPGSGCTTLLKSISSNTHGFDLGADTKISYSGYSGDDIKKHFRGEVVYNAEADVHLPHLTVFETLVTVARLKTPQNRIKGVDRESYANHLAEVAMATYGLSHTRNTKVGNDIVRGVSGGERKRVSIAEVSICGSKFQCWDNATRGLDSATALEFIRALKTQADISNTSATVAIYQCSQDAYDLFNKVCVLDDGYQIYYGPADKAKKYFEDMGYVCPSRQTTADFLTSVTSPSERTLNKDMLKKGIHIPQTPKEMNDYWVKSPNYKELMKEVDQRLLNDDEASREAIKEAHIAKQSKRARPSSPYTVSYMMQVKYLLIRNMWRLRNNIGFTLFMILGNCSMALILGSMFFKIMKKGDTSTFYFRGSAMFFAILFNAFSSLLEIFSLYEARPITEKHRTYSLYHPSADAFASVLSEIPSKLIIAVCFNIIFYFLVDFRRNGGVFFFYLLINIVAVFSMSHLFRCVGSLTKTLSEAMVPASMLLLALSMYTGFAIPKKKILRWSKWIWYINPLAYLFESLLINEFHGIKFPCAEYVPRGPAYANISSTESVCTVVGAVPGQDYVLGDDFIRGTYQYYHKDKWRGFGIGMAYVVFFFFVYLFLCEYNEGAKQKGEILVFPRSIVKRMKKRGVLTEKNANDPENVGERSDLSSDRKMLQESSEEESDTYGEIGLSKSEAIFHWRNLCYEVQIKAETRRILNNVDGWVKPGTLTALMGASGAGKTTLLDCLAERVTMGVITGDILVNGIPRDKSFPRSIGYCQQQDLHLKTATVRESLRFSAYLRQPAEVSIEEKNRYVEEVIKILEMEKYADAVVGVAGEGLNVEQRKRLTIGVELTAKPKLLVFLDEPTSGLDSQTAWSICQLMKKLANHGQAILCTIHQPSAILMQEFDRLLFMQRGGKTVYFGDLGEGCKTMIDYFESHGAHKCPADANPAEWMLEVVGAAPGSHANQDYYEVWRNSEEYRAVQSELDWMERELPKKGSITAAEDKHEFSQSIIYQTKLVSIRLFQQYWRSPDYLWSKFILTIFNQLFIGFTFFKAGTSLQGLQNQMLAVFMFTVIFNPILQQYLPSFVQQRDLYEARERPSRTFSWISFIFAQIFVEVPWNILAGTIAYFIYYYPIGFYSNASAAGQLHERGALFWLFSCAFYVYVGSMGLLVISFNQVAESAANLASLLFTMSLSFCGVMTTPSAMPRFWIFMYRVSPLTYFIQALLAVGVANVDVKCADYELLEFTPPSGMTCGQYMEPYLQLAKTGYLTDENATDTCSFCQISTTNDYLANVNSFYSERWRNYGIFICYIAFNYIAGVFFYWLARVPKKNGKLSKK
Protocol: (§2) Yeast cells grown on an SD-uracil medium were suspended in a soft agar dissolved in 4 ml at 50° C. so as to make 1×10^5 cells/ml, mixed after addition of a drug such as cycloheximide or cerulenin if necessary and layered on an SD-uracil medium containing the drug of the same concentration. After the soft agar was solidified, a pore of 8 mm diameter was formed on a part of the soft agar and 50 μl of the test substance were poured thereinto. The plate was incubated at 32° C. for 48 hours and […] of growth inhibition ring around the well was measured whereupon activity of the test substance for inhibiting the discharge of cycloheximide and cerulenin by the PDR transporter was evaluated.
(§3) Unit for the growth inhibition activity was defined as follows. Thus, when a triple gene disruption strain KHW3 (Δsyr1/erg3::HIS3 Δpdr5::LEU2 Δsnq2::HIS3) was used and diameter of the inhibition ring measured by the above agar well diffusion method was plotted to logarithm of cycloheximide concentration where cycloheximide of 8-200 μg/ml was used as a standard substance, it was noted there was a linear relation as shown in FIG. 1. Growth inhibition activity showing an inhibition ring of 20 mm to KHW3 containing pYI was defined as 20 inhibition units per ml (IU/ml) and, using the above-mentioned standard curve of cycloheximide, inhibition units of test substances were calculated. […]

KHW3+pYI = assay: Agar well diffusion growth inhibition assay, cytotoxicity check on KHW3+pYI; type: cell-based, Saccharomyces cerevisiae; settings: FK 506 solution 12.5 μg/ml, 50 μl per well; 32° C., 48 hours; no drug in medium
Protocol: as §2, §3

Row | SMILES | MIC (W303-1A + pYI; W303-1A + pYI (wild strain), 32° C., two days, read-out: MIC) [mg/L] | MIC (KHW1 + pYI; KHW1 + pYI, 32° C., two days, read-out: MIC) [mg/L] | Increase of sensitivity of SYR1 gene disruption strain (KHW1+pYI) compared with wild strain (W303-1A+pYI) (KHW1 + pYI) [fold] | MIC (KHW3 + pYI; KHW3 + pYI, 32° C., two days, read-out: MIC) [mg/L] | Increase of sensitivity of triple gene disruption strain KHW3 compared with wild strain (KHW3 + pYI) [fold] | MIC (KHW3 + pYI-PDR5; KHW3 + pYI-PDR5, 32° C., two days, read-out: MIC) [mg/L] | MIC (KHW4 + pYI; KHW4 + pYI, 32° C., two days, read-out: MIC) [mg/L] | MIC (KHW4 + pYI-PDR5) [mg/L] | Growth inhibition of KHW3+pYI-PDR5 by sole drug in medium (PDR5 transporter) | MIC (W303-1A + pYI) [mg/L] | MIC (KHW1 + pYI) [mg/L] | MIC (KHW3 + pYI) [mg/L] | MIC (KHW3 + pYI-PDR5) [mg/L] | MIC (KHW4 + pYI) [mg/L] | Growth inhibition of KHW3+pYI by test substance alone (cytotoxicity) (KHW3+pYI)
1 | C/C=C/C/C=C/CCC(=O)[C@H]1O[C@H]1C(N)=O [Cerulenin, cerulenin] | 0.8 | 0.4 | 2 | 0.2 | 4 | 0.8 | 0.4 | 0.6 | not inhibited |  |  |  |  |  | 
2 | C[C@@H]1C[C@@H]([C@H](O)CC2CC(=O)NC(=O)C2)C(=O)[C@@H](C)C1 [Cycloheximide, cycloheximide] |  |  | 4 |  | 16 |  |  | > 0.32 | not inhibited | 0.16 | 0.04 | 0.01 | 0.16 | 0.02 | 
3 | C=CC[C@@H]1/C=C(\C)C[C@H](C)C[C@H](OC)[C@H]2O[C@@](O)(C(=O)C(=O)N3CCCC[C@H]3C(=O)O[C@H](/C(C)=C/[C@@H]3CC[C@@H](O)[C@H](OC)C3)[C@H](C)[C@@H](O)CC1=O)[C@H](C)C[C@@H]2OC [FK 506] |  |  |  |  |  |  |  |  |  |  |  |  |  |  | did not inhibit the growth of KHW3+pYI

From patent US20040235723A1, “Method of screening abc protein promoter/inhibitor” (priority 2001, published 2004)
